{"source": "patent US20190246658A1", "about": "“METHODS OF HANDLING PAPAYA” (AGROFRESH INC., priority 2013, published 2019)", "key": {"Papayas ‘Golden’ [1]": {"test_system": "Papayas ‘Golden’", "assay": "Example 2 (yellow stage): pulp firmness, internal", "assay_type": "in vivo, papaya", "details": "500 ppb of MCP", "procedure": "(§1) A similar test to Example 1 but papayas are tested during their yellow stage. Papayas ‘Golden’ were harvested in Linhares—Espírito Santo—Brazil. The fruits were packed in MAP Bags and put in cardboard boxes.\n(§2) The fruits were first left at room temperature during 3 days to reach yellow maturity stage.\n(§3) After that the appropriate weight of papayas was placed in each bag after harvest. Bags were placed in the same cardboard boxes used to export the fruits. Papayas then were cold stored at (11° C.) at the Laboratory.\n(§4) The Test Protocol that was used was as follows. 18 MAP bags were packed. Each bag held approximately 3.8 kg (8.4 lb) of papayas. One such bag was packed in each cardboard box. Total weight of papayas in MAP bags was approximately 68 kg. Approximately 68 kg of papayas were placed into cardboard boxes identical to those used for the MAP bags.\n(§5) The MAP-packaged papayas were packaged as follows: Nine fruits, approximately 3.8 kg were carefully placed into microperforated bags, and the bags were sealed by twisting the open side of the bag, folding down the twisted end, and placing a rubber band around the twisted and folded end of the bag.\n(§6) All papayas were kept at cold temperature (11° C.) during 26 days and after that the fruits (packed in MAP bags or not) were put in room temperature (22° C.) during 8 days.\n(§7) After the 3 days for maturation at room temperature, when the papayas had around 5 lbf of average firmness, each treatment set was marked, placed in a hermetical chamber at cold temperature (11° C.). All chambers were of equal size and packed the same way. Treatment was for 12 hr. In the chambers for the 2 “MCP” treatment groups, at the beginning of the treatment period, SmartFresh™ were placed in the chamber. The amount of SmartFresh™ was chosen to achieve the indicated concentration of 1-methylcyclopropene in the atmosphere of the chamber.\nEvaluation for skin color and firmness was as follows. Day “zero” was the day the papayas were removed from the chamber and placed in storage.\nFor the Pulp Firmness evaluation two measurements were done, one for External Firmness and another for Internal Firmness. For External Firmness, the papayas had the skin removed with a peeler and the pulp firmness was measured with a Firmness Texture Analyzer (FTA) with a probe of 8 mm. For Internal Firmness, the papayas were cut transversally and a measurement close to the center of the fruit was taken with the FTA."}, "Papayas ‘Golden’ [2]": {"test_system": "Papayas ‘Golden’", "assay": "Example 2 (yellow stage): weight loss", "assay_type": "in vivo, papaya", "details": "for Weight loss: 500 ppb of MCP", "procedure": "as §1, §2, §3, §4, §5, §6, §7\nWeight loss was measured using the difference in weight observed in selected papayas from each treatment. These fruits were weighted before the cold storage and then the same fruits were weighted on the evaluations days."}, "[3]": {"details": "MAP bag, 26 days at 11° C. then 0 days @ 22° C."}, "[4]": {"details": "MAP bag, 26 days at 11° C. then 4 days @ 22° C."}, "[5]": {"details": "MAP bag, 26 days at 11° C. then 8 days @ 22° C."}, "[6]": {"details": "No Bag, 26 days at 11° C. then 0 days @ 22° C."}, "[7]": {"details": "No Bag, 26 days at 11° C. then 4 days @ 22° C."}, "[8]": {"details": "No Bag, 26 days at 11° C. then 8 days @ 22° C."}}, "data": [{"smiles": "CC1=CC1", "note": "[MCP, 1-methylcyclopropene]", "values": [{"measurement": "Pulp Firmness - Internal", "setting": "Papayas ‘Golden’ [1]; [3]", "value": 1.20, "unit": "lbf"}, {"measurement": "Pulp Firmness - Internal", "setting": "Papayas ‘Golden’ [1]; [4]", "value": 0.92, "unit": "lbf"}, {"measurement": "Pulp Firmness - Internal", "setting": "Papayas ‘Golden’ [1]; [5]", "value": 0.88, "unit": "lbf"}, {"measurement": "Pulp Firmness - Internal", "setting": "Papayas ‘Golden’ [1]; [6]", "value": 1.21, "unit": "lbf"}, {"measurement": "Pulp Firmness - Internal", "setting": "Papayas ‘Golden’ [1]; [7]", "value": 1.55, "unit": "lbf"}, {"measurement": "Pulp Firmness - Internal", "setting": "Papayas ‘Golden’ [1]; [8]", "value": 0.95, "unit": "lbf"}, {"measurement": "weight loss, in words", "setting": "Papayas ‘Golden’ [2]; 1-MCP alone (no MAP)", "value": "elevated weight loss"}, {"measurement": "Weight loss", "setting": "Papayas ‘Golden’ [2]; [3]", "value": 0.68, "unit": "%"}, {"measurement": "Weight loss", "setting": "Papayas ‘Golden’ [2]; [4]", "value": 1.21, "unit": "%"}, {"measurement": "Weight loss", "setting": "Papayas ‘Golden’ [2]; [5]", "value": 2.09, "unit": "%"}, {"measurement": "Weight loss", "setting": "Papayas ‘Golden’ [2]; [6]", "value": 5.42, "unit": "%"}, {"measurement": "Weight loss", "setting": "Papayas ‘Golden’ [2]; [7]", "value": 9.07, "unit": "%"}, {"measurement": "Weight loss", "setting": "Papayas ‘Golden’ [2]; [8]", "value": 16.53, "unit": "%"}]}]}
